Assay results: PubChem BioAssay AID330 (DTP/NCI, 2004)
“And” between values parts separate entries of the source, which are not always exact repeats. Equal values may be shown once. Toxic doses and inconclusive results are not listed. How the source made its calls: active means survival T/C of 150% or more; inactive means T/C below 125% in these data.

System: P388 leukemia ip, CD2F1 mice, survival T/C
Assay: NCI In Vivo Anticancer Drug Screen. Data for tumor model P388 Leukemia (intraperitoneal) in CD2F1 (CDF1) mice
Details: endpoint: median survival time, higher = longer survival
Procedure, shortened: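 Mice carrying the transplanted tumor received test compound or vehicle. Survival was recorded in each group, and the value is the treated-group measurement divided by that of the vehicle-treated control group.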

[1] = dose: 60.0 mg/kg/injection, schedule: Q01DX005 (ip), vehicle: Klucel (hydroxypropylcellulose) (HPC)
[2] = dose: 120.0 mg/kg/injection, schedule: Q01DX005 (ip), vehicle: Klucel (hydroxypropylcellulose) (HPC)
[3] = dose: 240.0 mg/kg/injection, schedule: Q01DX005 (ip), vehicle: Klucel (hydroxypropylcellulose) (HPC)
[4] = dose: 25.0 mg/kg/injection, schedule: Q01DX009 (ip), vehicle: saline with Tween-80
[5] = dose: 100.0 mg/kg/injection, schedule: Q04DX003 (ip), vehicle: Klucel (hydroxypropylcellulose) (HPC)
[6] = dose: 200.0 mg/kg/injection, schedule: Q04DX003 (ip), vehicle: Klucel (hydroxypropylcellulose) (HPC)
[7] = dose: 7.5 mg/kg/injection, schedule: Q01DX009 (ip), vehicle: saline with Tween-80
[8] = dose: 50.0 mg/kg/injection, schedule: Q01DX009 (ip), vehicle: saline with Tween-80
[9] = dose: 100.0 mg/kg/injection, schedule: Q01DX009 (ip), vehicle: saline with Tween-80
[10] = dose: 200.0 mg/kg/injection, schedule: Q01DX009 (ip), vehicle: saline with Tween-80
[11] = dose: 50.0 mg/kg/injection, schedule: Q01DX009 (ip), vehicle: saline
[12] = dose: 50.0 mg/kg/injection, schedule: Q01DX005 (ip), vehicle: saline with Tween-80
[13] = dose: 100.0 mg/kg/injection, schedule: Q01DX005 (ip), vehicle: saline with Tween-80
[14] = dose: 200.0 mg/kg/injection, schedule: Q01DX005 (ip), vehicle: saline with Tween-80

Measured: T/C

Clc1cc2nc3[nH]c4ccccc4c3nc2cc1Cl
inactive: dose: 15.0 mg/kg/injection, schedule: Q01DX005 (ip), vehicle: Klucel (hydroxypropylcellulose) (HPC) 93 % of control | dose: 30.0 mg/kg/injection, schedule: Q01DX005 (ip), vehicle: Klucel (hydroxypropylcellulose) (HPC) 101 % of control | [1] 93 % of control and 98 % of control | [2] 97 % of control

COc1ccc(N(CN2C(=O)CCC2=O)CS(=O)(=O)c2ccc(C)cc2)cc1
inactive: [1] 100 % of control | [2] 100 % of control | [3] 100 % of control

CC#CCOCC(O)CCl (stereo unspecified)
inactive: dose: 66.0 mg/kg/injection, schedule: Q04DX003 (ip), vehicle: saline 110 % of control | dose: 100.0 mg/kg/injection, schedule: Q04DX003 (ip), vehicle: saline 100 % of control | dose: 150.0 mg/kg/injection, schedule: Q04DX003 (ip), vehicle: saline 120 % of control

C=CCC(=C)C(=O)OC
inactive: dose: 12.5 mg/kg/injection, schedule: Q01DX009 (ip), vehicle: water 103 % of control | dose: 25.0 mg/kg/injection, schedule: Q01DX009 (ip), vehicle: water 104 % of control | dose: 50.0 mg/kg/injection, schedule: Q01DX009 (ip), vehicle: water 102 % of control | dose: 100.0 mg/kg/injection, schedule: Q01DX009 (ip), vehicle: water 102 % of control | dose: 200.0 mg/kg/injection, schedule: Q01DX009 (ip), vehicle: water 103 % of control

CC(=O)OCCN1CCN(CC/C=C2\c3ccccc3Sc3ccc(Cl)cc32)CC1
inactive: dose: 6.25 mg/kg/injection, schedule: Q01DX009 (ip), vehicle: saline with Tween-80 109 % of control | dose: 12.5 mg/kg/injection, schedule: Q01DX009 (ip), vehicle: saline with Tween-80 113 % of control | [4] 113 % of control

C=CC(C)(C)C1Oc2cc(OC)ccc2C(=O)C1c1ccc(OC)c(OC)c1O (stereo unspecified)
inactive: [5] 99 % of control | [6] 98 % of control | dose: 400.0 mg/kg/injection, schedule: Q04DX003 (ip), vehicle: Klucel (hydroxypropylcellulose) (HPC) 96 % of control

Cc1cc(N=Nc2ccc(O)cc2C(=O)O)c([N+](=O)[O-])cc1C
inactive: dose: 50.0 mg/kg/injection, schedule: Q01DX009 (ip), vehicle: Klucel (hydroxypropylcellulose) (HPC) 101 % of control | dose: 100.0 mg/kg/injection, schedule: Q01DX009 (ip), vehicle: Klucel (hydroxypropylcellulose) (HPC) 111 % of control | dose: 200.0 mg/kg/injection, schedule: Q01DX009 (ip), vehicle: Klucel (hydroxypropylcellulose) (HPC) 104 % of control

CCOC(=O)CNC(=O)/C=C\C(=O)NC(=O)OCC
inactive: dose: 3.7 mg/kg/injection, schedule: Q01DX009 (ip), vehicle: saline with Tween-80 110 % of control | [7] 107 % of control

CCOC(=O)CNC1CC(O[C@H]2C[C@](O)(C(C)=O)Cc3c(O)c4c(c(O)c32)C(=O)c2c(OC)cccc2C4=O)OC(C)C1O (stereo partly specified)
inactive: dose: 25.0 mg/kg/injection, schedule: Q04DX003 (ip), vehicle: Klucel (hydroxypropylcellulose) (HPC) 103 % of control | dose: 50.0 mg/kg/injection, schedule: Q04DX003 (ip), vehicle: Klucel (hydroxypropylcellulose) (HPC) 110 % of control | [5] 109 % of control | [6] 100 % of control

COc1ccc2c(=O)c3cc([N+](=O)[O-])ccc3n(C)c2c1
inactive: dose: 12.5 mg/kg/injection, schedule: Q01DX001 (ip), vehicle: saline with Tween-80 100 % of control | dose: 25.0 mg/kg/injection, schedule: Q01DX001 (ip), vehicle: saline with Tween-80 97 % of control | dose: 50.0 mg/kg/injection, schedule: Q01DX001 (ip), vehicle: saline with Tween-80 94 % of control | dose: 100.0 mg/kg/injection, schedule: Q01DX001 (ip), vehicle: saline with Tween-80 94 % of control

CCCCCCC(=O)CC(SCC)c1ccc(Cl)c(Cl)c1 (stereo unspecified)
inactive: [8] 100 % of control | [9] 97 % of control | [10] 106 % of control

CC1=CC(=O)N(NC(N)=O)C1=O
inactive: dose: 6.25 mg/kg/injection, schedule: Q01DX009 (ip), vehicle: saline 102 % of control and 110 % of control | dose: 12.5 mg/kg/injection, schedule: Q01DX009 (ip), vehicle: saline 105 % of control and 108 % of control | dose: 25.0 mg/kg/injection, schedule: Q01DX009 (ip), vehicle: saline 110 % of control and 123 % of control | [11] 109 % of control and 122 % of control

NC(=O)c1cc(C(Cl)Cl)ccn1
inactive: [1] 100 % of control | [2] 99 % of control | [3] 93 % of control

COc1nc2nc(Cl)cc(C)c2c2ccccc12 (tested in a mixture with another compound)
inactive: [12] 104 % of control | [13] 104 % of control | [14] 92 % of control

CC(Cl)C(=O)N(C)c1ccccc1 (stereo unspecified)
inactive: [5] 96 % of control | [6] 92 % of control

C=CC(=O)NC(CSCc1ccccc1)C(=O)O (stereo unspecified)
inactive: dose: 50.0 mg/kg/injection, schedule: Q01DX005 (ip), vehicle: Klucel (hydroxypropylcellulose) (HPC) 98 % of control | dose: 100.0 mg/kg/injection, schedule: Q01DX005 (ip), vehicle: Klucel (hydroxypropylcellulose) (HPC) 109 % of control | dose: 200.0 mg/kg/injection, schedule: Q01DX005 (ip), vehicle: Klucel (hydroxypropylcellulose) (HPC) 98 % of control

COCCn1c(=N)c(C(=O)OC)nc2c3ccccc3ccc21
inactive: [12] 104 % of control | [13] 107 % of control | [14] 101 % of control

COC(=O)C1(c2ccccc2)OP2(N(C)C)(OCCN2C)OC1(C(=O)OC)c1ccccc1 (stereo unspecified)
inactive: [12] 104 % of control | [13] 98 % of control | [14] 91 % of control

COc1ccc(-c2coc3cc(OC4OC(COC5OCC(O)C(O)C5O)C(O)C(O)C4O)cc(O)c3c2=O)cc1 (stereo unspecified)
inactive: [4] 103 % of control | [8] 98 % of control | [9] 102 % of control

CCC(C)n1c(C)nc2cc(C(F)(F)F)cc(N)c21 (stereo unspecified)
inactive: dose: 50.0 mg/kg/injection, schedule: Q01DX009 (ip), vehicle: saline + alcohol 99 % of control | dose: 100.0 mg/kg/injection, schedule: Q01DX009 (ip), vehicle: saline + alcohol 99 % of control

COc1ccccc1N=Nc1c(O)n(-c2ccccc2Cl)c(=S)n(-c2ccccc2OC)c1=O
inactive: dose: 50.0 mg/kg/injection, schedule: Q01DX001 (ip), vehicle: Klucel (hydroxypropylcellulose) (HPC) 102 % of control | dose: 100.0 mg/kg/injection, schedule: Q01DX001 (ip), vehicle: Klucel (hydroxypropylcellulose) (HPC) 102 % of control | dose: 200.0 mg/kg/injection, schedule: Q01DX001 (ip), vehicle: Klucel (hydroxypropylcellulose) (HPC) 101 % of control

CC(=O)OC1CCC2C3CCc4cc(OP(=O)(N5CC5)N5CC5)ccc4C3CCC12C (stereo unspecified)
inactive: [8] 92 % of control | [9] 114 % of control | [10] 108 % of control

COc1cc2ccc(=O)oc2cc1O
inactive: dose: 3.75 mg/kg/injection, schedule: Q01DX009 (ip), vehicle: saline with Tween-80 100 % of control | [7] 103 % of control and 98 % of control | dose: 15.0 mg/kg/injection, schedule: Q01DX009 (ip), vehicle: saline with Tween-80 100 % of control and 107 % of control | dose: 30.0 mg/kg/injection, schedule: Q01DX009 (ip), vehicle: saline with Tween-80 104 % of control and 91 % of control | [11] 95 % of control | dose: 50.0 mg/kg/injection, schedule: Q01DX009 (ip), vehicle: suspension in saline 99 % of control and 106 % of control | dose: 100.0 mg/kg/injection, schedule: Q01DX009 (ip), vehicle: saline 100 % of control | dose: 100.0 mg/kg/injection, schedule: Q01DX009 (ip), vehicle: suspension in saline 104 % of control and 109 % of control | dose: 200.0 mg/kg/injection, schedule: Q01DX009 (ip), vehicle: saline 100 % of control | dose: 200.0 mg/kg/injection, schedule: Q01DX009 (ip), vehicle: suspension in saline 107 % of control and 108 % of control | dose: 400.0 mg/kg/injection, schedule: Q01DX009 (ip), vehicle: saline 100 % of control | dose: 400.0 mg/kg/injection, schedule: Q01DX009 (ip), vehicle: suspension in saline 111 % of control
